# Measurements reported in PubChem BioAssay (NCI).
#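 Following 48 hours of exposure in 96-well plates, responses at five concentrations were used to interpolate endpoints linearly. TGI denotes the concentration required for complete inhibition of growth.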
# Key:
# Assay in all cases: growth of human tumour cells (NCI), 48 h
# 786-0 renal = tested on: 786-0 renal
# A498 renal = tested on: A498 renal
# A549 NSCLC = tested on: A549 NSCLC
# ACHN renal = tested on: ACHN renal
# BT-549 breast = tested on: BT-549 breast
# CAKI-1 renal = tested on: CAKI-1 renal
# CCRF-CEM leukemia = tested on: CCRF-CEM leukemia
# DU-145 prostate = tested on: DU-145 prostate
# EKVX NSCLC = tested on: EKVX NSCLC
# HCC-2998 colon = tested on: HCC-2998 colon
# HCT-116 colon = tested on: HCT-116 colon
# HCT-15 colon = tested on: HCT-15 colon
# HOP-62 NSCLC = tested on: HOP-62 NSCLC
# HOP-92 NSCLC = tested on: HOP-92 NSCLC
# HS 578T breast = tested on: HS 578T breast
# HT29 colon = tested on: HT29 colon
# IGROV1 ovarian = tested on: IGROV1 ovarian
# K-562 leukemia = tested on: K-562 leukemia
# KM12 colon = tested on: KM12 colon
# LOX IMVI melanoma = tested on: LOX IMVI melanoma
# M14 melanoma = tested on: M14 melanoma
# MCF7 breast = tested on: MCF7 breast
# MDA-MB-231 breast = tested on: MDA-MB-231 breast
# MDA-MB-435 = tested on: MDA-MB-435
# MOLT-4 leukemia = tested on: MOLT-4 leukemia
# NCI-H23 lung = tested on: NCI-H23 lung
# NCI-H460 lung = tested on: NCI-H460 lung
# NCI/ADR-RES ovarian = tested on: NCI/ADR-RES ovarian
# OVCAR-3 ovarian = tested on: OVCAR-3 ovarian
# OVCAR-4 ovarian = tested on: OVCAR-4 ovarian
# OVCAR-5 ovarian = tested on: OVCAR-5 ovarian
# OVCAR-8 ovarian = tested on: OVCAR-8 ovarian
# PC-3 prostate = tested on: PC-3 prostate
# RXF 393 renal = tested on: RXF 393 renal
# SF-268 CNS = tested on: SF-268 CNS
# SF-295 CNS = tested on: SF-295 CNS
# SF-539 CNS = tested on: SF-539 CNS
# SK-MEL-2 melanoma = tested on: SK-MEL-2 melanoma
# SK-MEL-28 melanoma = tested on: SK-MEL-28 melanoma
# SK-OV-3 ovarian = tested on: SK-OV-3 ovarian
# SN12C renal = tested on: SN12C renal
# SNB-19 CNS = tested on: SNB-19 CNS
# SNB-75 CNS = tested on: SNB-75 CNS
# SW-620 colon = tested on: SW-620 colon
# T-47D breast = tested on: T-47D breast
# TK-10 renal = tested on: TK-10 renal
# U251 CNS = tested on: U251 CNS
# UACC-257 melanoma = tested on: UACC-257 melanoma
# UACC-62 melanoma = tested on: UACC-62 melanoma
# UO-31 renal = tested on: UO-31 renal
# COLO 205 colon = tested on: COLO 205 colon
# HL-60(TB) leukemia = tested on: HL-60(TB) leukemia
# NCI-H226 lung = tested on: NCI-H226 lung
# NCI-H522 lung = tested on: NCI-H522 lung
# SK-MEL-5 melanoma = tested on: SK-MEL-5 melanoma
# MALME-3M melanoma = tested on: MALME-3M melanoma
structure (smiles),measurement,setting,value
CC(=O)O[C@H]1C(=O)[C@@]2(C)[C@H]([C@H](OC(=O)c3ccoc3)[C@]3(O)C[C@H](OC(=O)[C@H](O)[C@@H](NC(=O)c4ccccc4)c4ccccc4)C(C)=C1C3(C)C)[C@]1(OC(C)=O)CO[C@@H]1C[C@@H]2O,TGI,786-0 renal,> 12.5 µM
same,TGI,A498 renal,> 12.5 µM
same,TGI,A549 NSCLC,> 12.5 µM
same,TGI,ACHN renal,> 12.5 µM
same,TGI,BT-549 breast,> 12.5 µM
same,TGI,CAKI-1 renal,> 12.5 µM
same,TGI,CCRF-CEM leukemia,> 2.88 µM
same,TGI,DU-145 prostate,> 12.5 µM
same,TGI,EKVX NSCLC,> 12.5 µM
same,TGI,HCC-2998 colon,0.998 µM
same,TGI,HCT-116 colon,0.366 µM
same,TGI,HCT-15 colon,> 12.5 µM
same,TGI,HOP-62 NSCLC,> 12.5 µM
same,TGI,HOP-92 NSCLC,> 12.5 µM
same,TGI,HS 578T breast,0.612 µM
same,TGI,HT29 colon,> 12.5 µM
same,TGI,IGROV1 ovarian,> 12.5 µM
same,TGI,K-562 leukemia,0.156 µM
same,TGI,KM12 colon,> 12.5 µM
same,TGI,LOX IMVI melanoma,> 12.5 µM
same,TGI,M14 melanoma,> 12.5 µM
same,TGI,MCF7 breast,> 12.5 µM
same,TGI,MDA-MB-231 breast,> 12.5 µM
same,TGI,MDA-MB-435,0.0236 µM
same,TGI,MOLT-4 leukemia,> 11.6 µM
same,TGI,NCI-H23 lung,> 12.5 µM
same,TGI,NCI-H460 lung,> 3.73 µM
same,TGI,NCI/ADR-RES ovarian,> 12.5 µM
same,TGI,OVCAR-3 ovarian,0.752 µM
same,TGI,OVCAR-4 ovarian,> 12.5 µM
same,TGI,OVCAR-5 ovarian,> 12.5 µM
same,TGI,OVCAR-8 ovarian,> 12.5 µM
same,TGI,PC-3 prostate,> 12.5 µM
same,TGI,RXF 393 renal,> 11.8 µM
same,TGI,SF-268 CNS,> 12.5 µM
same,TGI,SF-295 CNS,> 12.5 µM
same,TGI,SF-539 CNS,0.221 µM
same,TGI,SK-MEL-2 melanoma,0.696 µM
same,TGI,SK-MEL-28 melanoma,> 12.5 µM
same,TGI,SK-OV-3 ovarian,> 3.15 µM
same,TGI,SN12C renal,> 12.5 µM
same,TGI,SNB-19 CNS,> 12.5 µM
same,TGI,SNB-75 CNS,2.38 µM
same,TGI,SW-620 colon,> 12.5 µM
same,TGI,T-47D breast,> 12.5 µM
same,TGI,TK-10 renal,> 12.5 µM
same,TGI,U251 CNS,> 12.5 µM
same,TGI,UACC-257 melanoma,> 12.5 µM
same,TGI,UACC-62 melanoma,> 12.5 µM
same,TGI,UO-31 renal,> 12.5 µM
NNC(=O)c1c(SCc2ccccc2)nc2c3ccccc3ccn12,TGI,A498 renal,46.6 µM
same,TGI,A549 NSCLC,70.3 µM
same,TGI,ACHN renal,> 100 µM
same,TGI,BT-549 breast,70.2 µM
same,TGI,CAKI-1 renal,87.9 µM
same,TGI,CCRF-CEM leukemia,22.1 µM
same,TGI,COLO 205 colon,> 100 µM
same,TGI,DU-145 prostate,> 100 µM
same,TGI,EKVX NSCLC,> 100 µM
same,TGI,HCC-2998 colon,> 100 µM
same,TGI,HCT-15 colon,41.2 µM
same,TGI,HL-60(TB) leukemia,29.4 µM
same,TGI,HOP-62 NSCLC,> 100 µM
same,TGI,HOP-92 NSCLC,68.5 µM
same,TGI,HS 578T breast,> 100 µM
same,TGI,HT29 colon,35.3 µM
same,TGI,IGROV1 ovarian,51.2 µM
same,TGI,K-562 leukemia,57.9 µM
same,TGI,KM12 colon,> 100 µM
same,TGI,M14 melanoma,41.2 µM
same,TGI,MCF7 breast,> 100 µM
same,TGI,MDA-MB-231 breast,87.9 µM
same,TGI,MDA-MB-435,> 100 µM
same,TGI,MOLT-4 leukemia,41.3 µM
same,TGI,NCI-H226 lung,> 100 µM
same,TGI,NCI-H23 lung,52.6 µM
same,TGI,NCI-H460 lung,28 µM
same,TGI,NCI-H522 lung,37.3 µM
same,TGI,NCI/ADR-RES ovarian,> 100 µM
same,TGI,OVCAR-3 ovarian,16 µM
same,TGI,OVCAR-4 ovarian,68.6 µM
same,TGI,OVCAR-5 ovarian,54.8 µM
same,TGI,OVCAR-8 ovarian,> 100 µM
same,TGI,PC-3 prostate,> 100 µM
same,TGI,RXF 393 renal,93.4 µM
same,TGI,SF-268 CNS,> 100 µM
same,TGI,SF-295 CNS,> 100 µM
same,TGI,SF-539 CNS,> 100 µM
same,TGI,SK-MEL-2 melanoma,> 100 µM
same,TGI,SK-MEL-28 melanoma,> 100 µM
same,TGI,SK-MEL-5 melanoma,28.3 µM
same,TGI,SK-OV-3 ovarian,> 100 µM
same,TGI,SN12C renal,> 100 µM
same,TGI,SNB-19 CNS,> 100 µM
same,TGI,SW-620 colon,> 100 µM
same,TGI,T-47D breast,72.1 µM
same,TGI,TK-10 renal,> 100 µM
same,TGI,U251 CNS,> 100 µM
same,TGI,UACC-257 melanoma,> 100 µM
same,TGI,UACC-62 melanoma,29.6 µM
same,TGI,UO-31 renal,66.5 µM
Cc1ccc([N+](=O)[O-])c2c(NCCC[N+](C)(C)[O-])c3ccccc3nc12,TGI,786-0 renal,6.72 µM
same,TGI,A498 renal,4.84 µM
same,TGI,A549 NSCLC,6.29 µM
same,TGI,ACHN renal,47.7 µM
same,TGI,BT-549 breast,4.81 µM
same,TGI,CAKI-1 renal,97 µM
same,TGI,CCRF-CEM leukemia,> 30.8 µM
same,TGI,COLO 205 colon,2.56 µM
same,TGI,DU-145 prostate,8.19 µM
same,TGI,EKVX NSCLC,3.88 µM
same,TGI,HCC-2998 colon,2.55 µM
same,TGI,HCT-116 colon,5 µM
same,TGI,HCT-15 colon,33 µM
same,TGI,HL-60(TB) leukemia,34.5 µM
same,TGI,HOP-62 NSCLC,> 41.1 µM
same,TGI,HOP-92 NSCLC,5.04 µM
same,TGI,HS 578T breast,21.7 µM
same,TGI,HT29 colon,5.26 µM
same,TGI,IGROV1 ovarian,> 23.9 µM
same,TGI,K-562 leukemia,> 38.3 µM
same,TGI,KM12 colon,> 21.1 µM
same,TGI,LOX IMVI melanoma,9.2 µM
same,TGI,M14 melanoma,7.42 µM
same,TGI,MALME-3M melanoma,2.78 µM
same,TGI,MCF7 breast,7.66 µM
same,TGI,MDA-MB-231 breast,6.28 µM
same,TGI,MDA-MB-435,5.15 µM
same,TGI,NCI-H226 lung,5.17 µM
same,TGI,NCI-H23 lung,3.41 µM
same,TGI,NCI-H460 lung,5.14 µM
same,TGI,NCI/ADR-RES ovarian,> 100 µM
same,TGI,OVCAR-3 ovarian,> 41.3 µM
same,TGI,OVCAR-4 ovarian,21.2 µM
same,TGI,OVCAR-5 ovarian,10.2 µM
same,TGI,OVCAR-8 ovarian,49.1 µM
same,TGI,PC-3 prostate,4.41 µM
same,TGI,RXF 393 renal,3.02 µM
same,TGI,SF-268 CNS,24.9 µM
same,TGI,SF-295 CNS,> 100 µM
same,TGI,SF-539 CNS,9.76 µM
same,TGI,SK-MEL-2 melanoma,2.25 µM
same,TGI,SK-MEL-28 melanoma,17 µM
same,TGI,SK-MEL-5 melanoma,2.46 µM
same,TGI,SK-OV-3 ovarian,> 100 µM
same,TGI,SN12C renal,8.74 µM
same,TGI,SNB-19 CNS,6.56 µM
same,TGI,SNB-75 CNS,2.49 µM
same,TGI,SW-620 colon,> 72.6 µM
same,TGI,T-47D breast,7 µM
same,TGI,TK-10 renal,80.5 µM
same,TGI,U251 CNS,7.32 µM
same,TGI,UACC-257 melanoma,6.11 µM
same,TGI,UACC-62 melanoma,3.4 µM
same,TGI,UO-31 renal,42.6 µM
